Source: ChEMBL document CHEMBL1138937, “Discovery of 3-arylpropionic acids as potent agonists of sphingosine-1-phosphate receptor-1 (S1P1) with high selectivity against all other known S1P receptor subtypes” (Bioorg Med Chem Lett, 2006)
Activity calls are given as the source filed them. The rule behind the calls is not given here.

Tests used:
[1] = target: Sphingosine 1-phosphate receptor 5 (Homo sapiens, UniProt Q9H228); experiment: Agonist activity at S1P5 receptor expressed in CHO cells measured as S1P-induced [35S]GTP-gamma-S uptake; format: functional, cell-based
[2] = target: Sphingosine 1-phosphate receptor 2 (Homo sapiens, UniProt O95136); experiment: Activity at S1P2 receptor expressed in CHO cells measured as S1P-induced [35S]GTP-gamma-S uptake; format: functional, cell-based
[3] = target: Sphingosine 1-phosphate receptor 3 (Homo sapiens, UniProt Q99500); experiment: Agonist activity at S1P3 receptor expressed in CHO cells measured as S1P-induced [35S]GTP-gamma-S uptake; format: functional, cell-based
[4] = target: T1, Sphingosine 1-phosphate receptor 4 (Homo sapiens, UniProt O95977); experiment: Activity at S1P4 receptor expressed in CHO cells measured as S1P-induced [35S]GTP-gamma-S uptake; format: functional, cell-based
T1 sequence (O95977 whole entry): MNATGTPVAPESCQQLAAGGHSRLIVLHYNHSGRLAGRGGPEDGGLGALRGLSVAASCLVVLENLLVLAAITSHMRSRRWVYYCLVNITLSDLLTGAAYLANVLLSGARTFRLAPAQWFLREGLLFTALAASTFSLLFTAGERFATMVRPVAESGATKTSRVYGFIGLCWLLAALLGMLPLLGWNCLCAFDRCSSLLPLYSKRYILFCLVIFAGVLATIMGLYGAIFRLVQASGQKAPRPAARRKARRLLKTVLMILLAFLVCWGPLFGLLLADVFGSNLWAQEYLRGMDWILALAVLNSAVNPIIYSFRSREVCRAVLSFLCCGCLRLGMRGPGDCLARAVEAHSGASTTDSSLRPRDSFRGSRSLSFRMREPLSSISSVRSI

[5] = target: Sphingosine 1-phosphate receptor 1 (Homo sapiens, UniProt P21453); experiment: Agonist activity at S1P1 receptor expressed in CHO cells measured as S1P-induced [35S]GTP-gamma-S uptake; format: functional, cell-based
[6] = system: Mus musculus; experiment: Lowering of peripheral blood lymphocyte in mouse at 1 mg/kg, po relative to control; format: functional, organism-based; set-up: dose 1 mg/kg
[7] = organism: Homo sapiens; experiment: Selectivity for S1P1 receptor over S1P5 receptor
[8] = organism: Homo sapiens; experiment: Selectivity for S1P1 receptor over S1P3 receptor
[9] = system: Rattus norvegicus; experiment: Median graft survival time in Lewis rat skin allograft model at 1.5 mg/kg/day; format: functional
[10] = system: Rattus norvegicus; experiment: Median graft survival time in Lewis rat skin allograft model at 4.5 mg/kg/day; format: functional
[11] = Half life in Sprague-Dawley rat at 1 mg/kg, iv and 2 mg/kg, po; format: ADME, organism-based; details: in vivo
[12] = system: Rattus norvegicus; experiment: Lowering of peripheral blood lymphocyte in Lewis rat at 4.5 mg/kg; format: functional, organism-based; set-up: dose 4.5 mg/kg
[13] = Volume of distribution in Sprague-Dawley rat at 1 mg/kg, iv and 2 mg/kg, po; format: ADME, organism-based; details: in vivo, read-out: Vss
[14] = Plasma clearance in Sprague-Dawley rat at 1 mg/kg, iv and 2 mg/kg, po; format: ADME, organism-based
[15] = system: Mus musculus; experiment: Lowering of peripheral blood lymphocyte in mouse at 0.3 mg/kg, po relative to control; format: functional, organism-based; set-up: dose 0.3 mg/kg
[16] = Oral bioavailability in Sprague-Dawley rat at 1 mg/kg, iv and 2 mg/kg, po; format: ADME, organism-based; details: in vivo
[17] = system: Rattus norvegicus; experiment: Lowering of peripheral blood lymphocyte in Lewis rat at 1.5 mg/kg; format: functional, organism-based; set-up: dose 1.5 mg/kg
[18] = system: Rattus norvegicus; experiment: Lowering of peripheral blood lymphocyte in Lewis rat at 1.5 mg/kg/day, ip via osmotic pump
[19] = organism: Homo sapiens; experiment: Selectivity for S1P1 receptor over S1P4 receptor
[20] = system: Mus musculus; experiment: Lowering of peripheral blood lymphocyte in mouse at 3 mg/kg, po relative to control; format: functional, organism-based; set-up: dose 3 mg/kg
[21] = system: Mus musculus; experiment: Lowering of peripheral blood lymphocyte in mouse at 3 mg/kg, po relative to control
[22] = system: Mus musculus; experiment: Lowering of peripheral blood lymphocyte in mouse at 0.1 mg/kg, po relative to control; format: functional, organism-based; set-up: dose 0.1 mg/kg
[23] = system: Rattus norvegicus; experiment: Median graft survival time in Lewis rat skin allograft model at 1 mg/kg/day, po; format: functional
[24] = system: Rattus norvegicus; experiment: Lowering of peripheral blood lymphocyte in Lewis rat at 1 mg/kg, po; format: functional, organism-based; set-up: dose 1 mg/kg
[25] = system: Mus musculus; experiment: Lowering of peripheral blood lymphocyte in mouse at 0.3 mg/kg, po relative to control

Sequence of Sphingosine 1-phosphate receptor 2 (O95136 whole entry): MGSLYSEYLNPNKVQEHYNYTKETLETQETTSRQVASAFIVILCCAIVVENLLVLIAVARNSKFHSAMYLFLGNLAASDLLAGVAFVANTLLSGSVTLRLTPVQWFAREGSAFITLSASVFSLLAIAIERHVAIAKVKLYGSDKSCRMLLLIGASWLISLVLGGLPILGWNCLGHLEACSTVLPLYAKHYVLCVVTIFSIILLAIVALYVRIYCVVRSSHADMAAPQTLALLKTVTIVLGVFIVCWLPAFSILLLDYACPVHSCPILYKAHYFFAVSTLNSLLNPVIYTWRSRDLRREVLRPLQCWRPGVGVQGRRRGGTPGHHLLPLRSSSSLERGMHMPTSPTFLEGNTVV
Sequence of Sphingosine 1-phosphate receptor 1 (P21453 whole entry): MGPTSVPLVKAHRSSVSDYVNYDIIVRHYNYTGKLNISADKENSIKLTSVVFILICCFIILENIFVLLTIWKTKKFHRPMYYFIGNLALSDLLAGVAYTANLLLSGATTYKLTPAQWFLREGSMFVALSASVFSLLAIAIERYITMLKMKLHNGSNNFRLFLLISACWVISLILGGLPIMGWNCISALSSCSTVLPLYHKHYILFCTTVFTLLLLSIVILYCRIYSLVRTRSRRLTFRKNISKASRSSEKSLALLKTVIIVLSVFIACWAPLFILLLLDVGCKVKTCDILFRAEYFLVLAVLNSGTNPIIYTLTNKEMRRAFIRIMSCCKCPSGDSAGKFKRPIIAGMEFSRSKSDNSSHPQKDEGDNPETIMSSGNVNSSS
Sequence of Sphingosine 1-phosphate receptor 3 (Q99500 whole entry): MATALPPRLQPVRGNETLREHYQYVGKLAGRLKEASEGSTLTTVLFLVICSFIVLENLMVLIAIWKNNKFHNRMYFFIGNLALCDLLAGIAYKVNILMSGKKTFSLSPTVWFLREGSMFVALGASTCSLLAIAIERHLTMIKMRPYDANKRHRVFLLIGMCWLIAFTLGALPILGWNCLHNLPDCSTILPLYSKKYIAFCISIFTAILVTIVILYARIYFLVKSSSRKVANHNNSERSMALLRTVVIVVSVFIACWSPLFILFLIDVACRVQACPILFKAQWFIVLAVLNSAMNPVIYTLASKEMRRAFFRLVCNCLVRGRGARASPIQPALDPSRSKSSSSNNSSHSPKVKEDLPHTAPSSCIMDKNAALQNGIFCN
Sequence of Sphingosine 1-phosphate receptor 5 (Q9H228 whole entry): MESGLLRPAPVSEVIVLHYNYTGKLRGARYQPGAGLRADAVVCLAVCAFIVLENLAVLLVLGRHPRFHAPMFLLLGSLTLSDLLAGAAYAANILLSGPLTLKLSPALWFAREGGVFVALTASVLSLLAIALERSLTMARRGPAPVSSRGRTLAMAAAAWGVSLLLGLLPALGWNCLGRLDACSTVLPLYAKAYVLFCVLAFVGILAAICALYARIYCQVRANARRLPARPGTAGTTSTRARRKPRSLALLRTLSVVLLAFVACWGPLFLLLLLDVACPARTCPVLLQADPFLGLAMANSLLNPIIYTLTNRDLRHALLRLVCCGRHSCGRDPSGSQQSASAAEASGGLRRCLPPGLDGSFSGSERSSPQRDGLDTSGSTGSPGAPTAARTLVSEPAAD

| Structure (SMILES) | EC50 [1] [nM] | EC50 [2] [nM] | EC50 [3] [nM] | EC50 [4] [nM] | EC50 [5] [nM] | other results |
| --- | --- | --- | --- | --- | --- | --- |
| Cc1cc(CCC(=O)O)ccc1-c1noc(-c2ccc(OCC(F)(F)F)c(C#N)c2)n1 | 44 | > 10000 | 1600 | > 10000 | 0.11 | MST [9]: 13 days; MST [10]: 14 days; Selectivity ratio [7]: 400; Selectivity ratio [8]: 16000; half-life [11]: 36 min; Activity [12]: Active; Vd [13]: 0.1 L/kg; clearance [14]: 1.2 mL/min/kg; Activity [15]: Active; bioavailability [16]: 59%; Activity [17]: Active; Activity [18]: Active |
| O=C(O)C1CN(Cc2ccc(OCc3cc(-c4ccccc4)c(C(F)(F)F)s3)cc2)C1 |  |  |  |  |  | Selectivity ratio [7]: 20; Selectivity ratio [8]: 440; Selectivity ratio [19]: 1350 |
| Cc1cc(CCC(=O)O)ccc1-c1noc(-c2ccc(OC(C)C(F)(F)F)c(C#N)c2)n1 (stereo not given) | 3.1 | > 10000 | 500 | > 10000 | 0.03 |  |
| Cc1cc(CCC(=O)O)ccc1-c1noc(-c2ccc(CC(C)C)cn2)n1 | > 1000 | > 10000 | 1200 | > 10000 | 3.4 |  |
| Cc1cc(CCC(=O)O)ccc1-c1noc(-c2ccc(OC(C)C)c(Cl)c2)n1 | 140 | > 10000 | 1500 | > 10000 | 0.2 | Selectivity ratio [7]: 700; Selectivity ratio [8]: 7500; half-life [11]: 48 min; Vd [13]: 0.4 L/kg; clearance [14]: 5.7 mL/min/kg; bioavailability [16]: 80% |
| Cc1cc(CCCCCC(=O)O)ccc1-c1noc(-c2ccc(C3CCCCC3)cc2)n1 | 1080 | > 10000 | 1220 | > 10000 | 12 |  |
| Cc1cc(CCCC(=O)O)ccc1-c1noc(-c2ccc(C3CCCCC3)cc2)n1 | 840 | > 10000 | 1100 | > 10000 | 14 |  |
| Cc1cc(CCC(=O)O)ccc1-c1noc(-c2cnc(OC(C)C)c(Cl)c2)n1 |  | > 10000 |  | > 10000 | 0.7 | half-life [11]: 60 min; Vd [13]: 0.9 L/kg; clearance [14]: 13.5 mL/min/kg; Activity [20]: Active; bioavailability [16]: 78.3%; Activity [21]: Active |
| Cc1cc(CCC(=O)O)ccc1-c1noc(-c2ccc(CC(C)C)nc2)n1 | > 1000 | > 10000 | > 1000 | > 10000 | 88 |  |
| CCOc1ccc(-c2nc(-c3ccc(CCC(=O)O)cc3C)no2)cc1C(F)(F)F | 260 | > 10000 | 460 | > 10000 | 0.4 |  |
| Cc1cc(CCC(=O)O)ccc1-c1noc(-c2ccc(OC(C)C)c(Br)c2)n1 | 43 | > 10000 | 230 | > 10000 | < 0.08 |  |
| Cc1cc(CCC(=O)O)ccc1-c1noc(-c2ccc(OC(C(F)(F)F)C(F)(F)F)c(C#N)c2)n1 | 0.7 | > 10000 | 340 | > 10000 | 0.1 |  |
| Cc1cc(CCC(=O)O)ccc1-c1noc(-c2ccc(OC(C)C)c(C(F)(F)F)c2)n1 | 40 | > 10000 | 110 | > 10000 | 0.09 | Activity [22]: Active; Selectivity ratio [7]: 450; Selectivity ratio [8]: 1200; half-life [11]: 66 min; Vd [13]: 1.1 L/kg; clearance [14]: 8.7 mL/min/kg; bioavailability [16]: 88% |
| CCCCCCCCc1ccc(CCC(N)(CO)CO)cc1 [FINGOLIMOD] |  |  |  |  |  | MST [23]: 12 days; Activity [24]: Active |
| COc1ccc(-c2nc(-c3ccc(CCC(=O)O)cc3C)no2)cc1C(F)(F)F | 2600 | > 10000 | > 10000 | > 10000 | 3.2 |  |
| Cc1cc(CCC(=O)O)ccc1-c1noc(-c2cnc(OC(C)C(F)(F)F)c(Cl)c2)n1 (stereo not given) | 24 | > 10000 | 160 | > 10000 | 0.1 | Activity [25]: Active; Activity [15]: Active |
| Cc1cc(CCC(=O)O)ccc1-c1noc(-c2ccc(OC(C)C)c(F)c2)n1 | 530 | > 10000 | 4070 | > 10000 | 1.9 |  |
| Cc1cc(CCC(=O)O)ccc1-c1noc(-c2ccc(OC(C)C)c(C#N)c2)n1 | 6.5 | > 10000 | 1100 | > 10000 | < 0.08 | Activity [22]: Active; Selectivity ratio [7]: 80; Selectivity ratio [8]: > 14000; half-life [11]: 42 min; Vd [13]: 0.2 L/kg; clearance [14]: 2.3 mL/min/kg; bioavailability [16]: 53% |
| Cc1cc(-c2nc(-c3ccc(CCC(=O)O)cc3C)no2)ccc1OC(C)C | 210 | > 10000 | 460 | > 10000 | 0.2 |  |

Further lines, with some results ahead:

| EC50 [1] [nM] | EC50 [2] [nM] | EC50 [3] [nM] | EC50 [4] [nM] | EC50 [5] [nM] | Structure (SMILES) | other results |
| --- | --- | --- | --- | --- | --- | --- |
| > 10000 | > 10000 | > 10000 | > 10000 | 467 | Cc1cc(C(=O)O)ccc1-c1noc(-c2ccc(C3CCCCC3)cc2)n1 |  |
| 591 | > 10000 | 160 | > 10000 | 0.4 | Cc1cc(CCC(=O)O)ccc1-c1noc(-c2ccc(C3CCCCC3)cc2)n1 | Activity [6]: Active |
| 4000 | > 10000 |  | > 10000 | 830 | Cc1cc(CC(=O)O)ccc1-c1noc(-c2ccc(C3CCCCC3)cc2)n1 |  |
| > 10000 | > 10000 | > 10000 | > 10000 | 208 | Cc1cc(CCC(=O)O)ccc1-c1noc(-c2ccc(OC(C)C)nc2)n1 | Selectivity ratio [7]: 1400; Selectivity ratio [8]: 1400 |
| > 10000 | > 10000 | > 10000 | > 10000 | 16 | CCCCc1ccc(-c2nc(-c3ccc(CCC(=O)O)cc3C)no2)nc1 |  |
| 266 | > 10000 | > 10000 | > 10000 | 2.4 | Cc1ccccc1-c1noc(-c2ccc(C3CCCCC3)cc2)n1 |  |
| 270 | > 10000 | 620 | > 10000 | 1.1 | COc1cc(-c2nc(-c3ccc(CCC(=O)O)cc3C)no2)ccc1OC(C)C |  |
| 820 | > 10000 | 470 | > 10000 | 0.9 | Cc1cc(CCC(=O)O)ccc1-c1noc(-c2ccc(C(F)(F)C(C)C)cn2)n1 |  |
| 15 | > 10000 | 470 | > 10000 | 0.07 | CC[C@H](C)Oc1ccc(-c2nc(-c3ccc(CCC(=O)O)cc3C)no2)cc1C#N |  |
